Test results: patent publication US20100298141A1, “SUBSTITUTED PYRIDINE N-OXIDE HERBICIDES” (E. I. DU PONT DE NEMOURS AND COMPANY, priority 2007, published 2010)

What was measured:
[1] = test system: corn; assay: Test A pre-/postemergence greenhouse test; type: in vivo, Zea mays; details: for Corn plant response rating: 0 to 100 scale
In short: (§1)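 Herbicidal effect is a visual injury score given about ten days post-treatment by comparison with untreated controls. Preemergence plots received a directed spray onto sown loam–sand soil; postemergence plants, at the one- to two-leaf stage and 2–10 cm tall, were sprayed at the same time.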

[2] = test system: barnyardgrass; assay: Test A pre-/postemergence greenhouse test; type: in vivo, Echinochloa crus-galli; details: for Barnyardgrass plant response rating: 0 to 100 scale
In short: as §1

[3] = test system: Goosegrass; assay: Test C pre-/postemergence test; type: in vivo, Eleusin indica; details: Preemergence
In short: (§2)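 Seeds were planted and treated preemergence with test chemical in a non-phytotoxic solvent mixture containing surfactant. Postemergence applications of the same formulation went onto plants 2 to 18 cm tall (1- to 4-leaf stage). A dash marks no test result.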

[4] = test system: Surinam grass; assay: Test C pre-/postemergence test; type: in vivo, Brachiaria decumbens; details: Preemergence
In short: as §2

[5] = test system: eastern black nightshade; assay: Test C pre-/postemergence test; type: in vivo, Solanum ptycanthum; details: Preemergence
In short: as §2

[6] = test system: common (oilseed) sunflower; assay: Test C pre-/postemergence test; type: in vivo, Helianthus annuus; details: Preemergence
In short: as §2

[7] = test system: redroot pigweed; assay: Test A pre-/postemergence greenhouse test; type: in vivo, Amaranthus retroflexus; details: for Pigweed plant response rating: 0 to 100 scale
In short: as §1

[8] = test system: rice; assay: Test C flooded paddy test; type: in vivo, Oryza sativa; details: Flood
In short: (§3)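 Under a constant 3 cm flood, test compounds went directly into the paddy water. Following 13 to 15 days of greenhouse growth, treated species and controls were compared by eye.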

[9] = test system: bermudagrass; assay: Test C pre-/postemergence test; type: in vivo, Cynodon dactylon
In short: as §2

[10] = test system: wheat; assay: Test C pre-/postemergence test; type: in vivo, Triticum aestivum; details: Preemergence
In short: as §2

[11] = test system: morningglory; assay: Test A pre-/postemergence greenhouse test; type: in vivo, Ipomoea spp.; details: for Morningglory plant response rating: 0 to 100 scale
In short: as §1

[12] = test system: pigweed; assay: Test C pre-/postemergence test; type: in vivo, Amaranthus retroflexus; details: Preemergence
In short: as §2

[13] = test system: wheat; assay: Test A pre-/postemergence greenhouse test; type: in vivo, Triticum aestivum; details: for Wheat plant response rating: 0 to 100 scale
In short: as §1

[14] = test system: crabgrass; assay: Test C pre-/postemergence test; type: in vivo, Digitaria sanguinalis; details: Preemergence
In short: as §2

[15] = test system: giant foxtail; assay: Test A pre-/postemergence greenhouse test; type: in vivo, Setaria faberi; details: for Foxtail, Giant plant response rating: 0 to 100 scale
In short: as §1

[16] = test system: lambsquarters; assay: Test C pre-/postemergence test; type: in vivo, Chenopodium album; details: Preemergence
In short: as §2

[17] = test system: umbrella sedge; assay: Test C flooded paddy test; type: in vivo, Cyperus difformis; details: Flood
In short: as §3

[18] = Postemergence, 125 g ai/ha, 0 is no effect, 100 is complete control
[19] = Postemergence, 500 g ai/ha, 0 is no effect, 100 is complete control
[20] = Preemergence, 125 g ai/ha, 0 no effect, 100 complete control
[21] = Preemergence, 500 g ai/ha, 0 to 100 scale where 0 is no effect and 100 is complete control
[22] = 31 g ai/ha, scale 0 to 100 (0 no effect, 100 complete control)
[23] = 62 g ai/ha, scale 0 to 100, 0 no effect, 100 complete control, 13 to 15 days
[24] = 125 g ai/ha, scale 0 to 100, 0 no effect, 100 complete control, 13 to 15 days

Cc1cc[n+]([O-])c([S+]([O-])Cc2c(C(F)(F)F)nn(C)c2Cl)c1 (racemic) [Compound 20]
80: Barnyardgrass plant response rating [2, 19] | Plant response rating, Nightshade [5, 22] | Plant response rating, Morningglory [11, 21] | Plant response rating, Pigweed [12, 22] | Plant response rating, Wheat [13, 21] | Foxtail, Giant plant response rating [15, 19] | Foxtail, Giant plant response rating [15, 20]
100: Plant response rating, Barnyardgrass [2, 21] | Goosegrass plant response rating ([3]; 62 g ai/ha, scale 0 to 100) | Plant response rating (0 to 100), Goosegrass ([3]; 250 g ai/ha) | Plant response rating, Pigweed [7, 21] | Plant response rating (0 to 100), Bermudagrass ([9]; Preemergence, 250 g ai/ha) | Bermudagrass plant response rating ([9]; preemergence, 125 g ai/ha, scale 0 (no effect) to 100 (complete control)) | Pigweed plant response rating ([12]; 62 g ai/ha, scale 0 to 100) | Crabgrass, Large plant response rating ([14]; 62 g ai/ha, scale 0 to 100) | Plant response rating (0 to 100), Crabgrass, Large ([14]; 250 g ai/ha) | Plant response rating, Foxtail, Giant [15, 21] | Lambsquarters plant response rating ([16]; 62 g ai/ha, scale 0 to 100)
70: Corn plant response rating [1, 19] | Barnyardgrass plant response rating [2, 20] | Surinam Grass plant response rating ([4]; 62 g ai/ha, scale 0 to 100) | Pigweed plant response rating [7, 19] | Wheat plant response rating ([10]; 62 g ai/ha, scale 0 to 100) | Morningglory plant response rating [11, 20]
0: Corn plant response rating [1, 18] | Plant response rating, Surinam Grass [4, 22] | Sunflower plant response rating ([6]; 62 g ai/ha, scale 0 to 100) | Plant response rating, Sunflower [6, 22] | Plant response rating, Rice [8, 22] | Plant response rating, Rice [8, 23] | Plant response rating, Rice [8, 24] | Plant response rating, Wheat [10, 22] | Wheat plant response rating [13, 18] | Plant response rating, Sedge, Umbrella [17, 22] | Plant response rating, Sedge, Umbrella [17, 23]
55: Plant response rating, Bermudagrass ([9]; Preemergence, 31 g ai/ha, scale 0 to 100 (0 no effect, 100 complete control))
85: Plant response rating, Goosegrass [3, 22] | Nightshade plant response rating ([5]; 62 g ai/ha, scale 0 to 100) | Bermudagrass plant response rating ([9]; 62 g ai/ha, Preemergence, scale 0 to 100 (0 no effect, 100 complete control)) | Plant response rating, Crabgrass, Large [14, 22] | Plant response rating, Sedge, Umbrella [17, 24] | Plant response rating, Sedge, Umbrella ([17]; 250 g ai/ha, scale 0 to 100, 0 no effect, 100 complete control, 13 to 15 days)
30: Corn plant response rating [1, 20] | Plant response rating, Rice ([8]; 250 g ai/ha, scale 0 to 100 (0 no effect, 100 complete control)) | Wheat plant response rating [13, 20]
90: Pigweed plant response rating [7, 20] | Plant response rating, Lambsquarters [16, 22]
40: Barnyardgrass plant response rating [2, 18] | Pigweed plant response rating [7, 18] | Morningglory plant response rating [11, 18]
50: Foxtail, Giant plant response rating [15, 18]
60: Plant response rating, Corn [1, 21] | Morningglory plant response rating [11, 19] | Wheat plant response rating [13, 19]
